This passage reports Denaturation peak temperature results from US20140335038A1, “METHOD OF STRENGTHENING HAIR FIBRES” (priority 2011, published 2014).

The assay is described as follows: DSC denaturation peak temperature of treated dark brown hair. Also on record: species or system Human. The following applies: Example 4, 5 treatments, pH 5, 32° C. How it is done: DSC measures the denaturation temperature of the α-helical proteins in the microfibrils of the hair fibre. This temperature is influenced by the cross-link density of the surrounding matrix proteins (Wortmann et al., J. Cosmet. Sci., 53, 219-228 (2002)). A higher denaturation peak temperature indicates greater integrity of the fibre. Damage repair was assessed using DSC. A Mettler Toledo DSC1 analyser was used. The hair was shaved, using clippers, into 1-2 mm lengths. Approximately 5 mg of sample was weighed into a pressure resistant (20 bar), stainless steel, large volume pan (120 μL capacity). 50 μL of water was added and the pan was sealed. The samples were then mixed using a rotary mixer and left overnight to allow the water to equilibrate throughout the sample. […] The helix transition temperature was measured. Each sample was measured three times. Selected 2'' hair switches were bleached once using […] […] 4200 μL Britton-Robinson buffer (62.5 mM pH 5; final concentration 50 mM) 600 μl hydrogen peroxide 3% (SBP- or HRP-treated sample and (+)-catechin/H2O2 treated sample) or 600 μL milliQ water (laccase-treated sample and (+)-catechin treated sample) 600 μL (+)-catechin, 100 mg/mL stock in DMSO The reagents listed above were combined in 15 mL Falcon centrifuge tubes. […] Samples were measured three times.

With `Oc1cc(O)c2c(c1)O[C@H](c1ccc(O)c(O)c1)[C@@H](O)C2` [(+)-Catechin, (+)-catechin], the Denaturation peak temperature was 153.38 +/− 0.43 °C (dark brown hair bleached x1) and 151.16 +/− 0.49 °C (unbleached dark brown hair).
